Test results reported in patent publication US12310967B2, “Compositions and methods of treatment for neurological disorders comprising motor neuron diseases” (Gliapharm SA, priority 2017, dated 2025).
Like-named read-outs stand apart in the source and are kept apart here.

Assays:
[1] = system: primary astrocytes; assay: Extracellular lactate quantification; assay type: cell-based, mouse; details: for Score_LACTATE: Appendix I, secondary screening: extracellular lactate; for Score Lact. / EC50: Appendix II; for Score Lact.: CDC54K library; for EC50: lactate secretion, read-out: EC50
Protocol: Secretion of L-lactate was determined in the extracellular medium of 96-well plated astrocytes after 90 min stimulation (at 37° C., in 5% CO2/95% air conditions) with the drug of interest. The stimulation medium was composed of D5030 medium (completed with D-glucose 5 mM and 44 mM sodium bicarbonate) for 90 min in concentrations ranging from 0 to 100 μM.
Briefly, 200 μl of a Glycine (Sigma)-Semicarbazide (Acros) 0.2M pH 10 buffer containing 3 mM NAD (Roche) and LDH 14 U/ml (Roche) was added to each well of a 96-well plate containing 30 μl aliquots complemented with 20 μl fresh complete D5030 medium. Samples were incubated at 37° C. for 1 h. After samples cooled down at room temperature, the fluorescence intensity (340 nm excitation/450 nm emission) that represents the amount of NADH produced was measured, and lactate concentration values were determined from a standard curve of L-lactate.
Statistical analysis consisted in ANOVA followed by Fisher LSD post-hoc test for pair-wise comparisons.
Levels of lactate secreted by astrocytes were measured in the extracellular medium at 90 min after stimulation with hits (molecules) from the CDC54K library.

[2] = system: primary astrocytes; assay: High throughput screening (HTS) for lactate secretion: acidification of extracellular medium (SNARF5); assay type: cell-based, mouse; set-up: key to Score / HTS Score (SNARF5) / Score_SNARF: fraction of plate positive-control activity (1 = 100%); details: for Score_SNARF: primary screening confirmation (SNARF5)
Protocol: Primary cultures of cerebrocortical astrocytes were obtained from 1-2-day-old OF1 mouse pups (Charles River Laboratories). Briefly, cortices were isolated and minced in small pieces under a dissecting microscope. The cells were incubated for 30 min at 37° C. in a solution containing 20 U/ml of papain enzyme (Worthington Biochemical), L-cysteine 1 mM (Sigma), and 10 kU/ml DNase I (Worthington Biochemical) for an enzymatic dissociation. Papain activity was stopped by the addition of fetal calf serum (FCS) to the solution, and a single-cell suspension was then obtained by mechanical dissociation, which consisted in cells trituration in a DMEM (D7777, Sigma-Aldrich) medium (supplemented with 44 mm NaHCO3, and 10 ml/L antibiotic/antimycotic solution) containing 10% FCS. The cells were seeded at an average density of 6×10^4 cells/cm^2 in poly-D-lysine-coated 96, 12 or 6-well culture plates, depending on their use, and incubated at 37° C. in a humidified atmosphere containing 5% CO2/95% air. Culture medium was renewed twice per week. Cells were stimulated and harvested between DIV14 and DIV17, when confluence and cell growth were optimal.
Secretion of lactate in a high-throughput screening (HTS) fashion was measured indirectly through the acidification of extracellular medium. To this end, primary astrocytes grown in 96-well plates for 17 days were stimulated with the compounds as listed herein.
After washing the cells twice with stimulation medium (DMEM (D5030, Sigma), 3 mM NaHCO3 and 5 mM Glucose) at 37° C., cells were stimulated with the compounds at a final concentration of 10 uM (1% DMSO final) in 50 ul per well of stimulation medium supplemented with 10 uM of the extracellular pH sensor SNARF-5F %-(AND-6)-CAR (Life Technologies Corporation). Each compound was tested in two different plates for duplicates.
After 90 min stimulation, fluorescence was read at exc. (excitation) 480 nm/emm. (emission) 580 nm and at exc 480 nm/emm. 630 nm. The ratio of fluorescence between 630 nm and 580 emission values, which represents extracellular pH, was calculated.
In each plate, 8 wells were used for negative controls (DMSO) and 8 wells were used for positive controls (CCCP 2 uM in DMSO). Z prime values were calculated for each of the plates tested and values<0 were discarded.
The average and SD of compounds' values tested in duplicates were calculated, and compound was noted as HIT when the difference between compound's average and negative control's average was greater than three times the sum of compound's SD and negative controls' SD. Only scores greater than 40% were considered as lead Hits for the CDC54K library; for the remaining libraries, all hits were considered. Scores are calculated as the % of activity compared to the positive control in each plate (which is 100%).
Primary screening hits were cherry picked on new plates and confirmed for SNARF5 effect, after having discarded those compounds that are fluorescent (exc. 480 nm/emm. 580 nm or 630 nm) before stimulation. Extracellular medium was next analyzed for extracellular lactate quantification for secondary screening.
Identification of lactate-enhancing drugs with high throughput screening (HTS) experiments on astrocytes primary cultures using extracellular pH dye (SNARF5F 5-(and-6)-carboxylic acid) for 90 min. The procedure is described in Material and Methods (2. Cell culture, 2.1. HTS for lactate secretion and 2.2. Extracellular lactate quantification).
The procedure was performed as follows: • Primary screening: acidification of the extracellular medium • Primary screening confirmation: acidification of the extracellular medium, removal of compounds with fluorescent activity at exc. 480 nm/emm. 580 nm or 630 n. • Secondary screening: dosage of extracellular lactate

SMILES	Score_LACTATE [1]	Score_SNARF ([2]; Appendix I)	Score Lact. [1]	other results
c1ccc(C(Nc2ncnc3sccc23)C2CC2)cc1 (centres unmarked) [T6016487]	1.857	1.081	–	–
Cc1cccc(NS(=O)(=O)c2cc(-c3noc(C)n3)cs2)c1 [L287-0220]	1.578	0.5829	–	–
COc1ccc(C2SCCN2S(=O)(=O)c2cccc(C)c2)cc1OC (centres unmarked) [T5463658]	0.3773	0.4683	–	–
CC(=O)N1CCCc2cc(S(=O)(=O)NCc3cccc(C(F)(F)F)c3)ccc21 [T6099519]	0	0.3944	–	–
CCn1nccc1-c1csc(S(=O)(=O)Nc2ccccc2OC)c1 [L924-1088]	0.9106	0.8835	–	–
Cc1cccc([N+]2=C3CCCCCN3C(O)(c3ccc(F)cc3)C2)c1 (centres unmarked) [K404-0910]	0.6219	0.5878	–	–
COc1cccc(-c2cc3n(n2)CCCN(Cc2ccncc2)C3)c1 [T202-0973]	0	0.2834	–	–
O=S(=O)(Nc1ccc2[nH]ncc2c1)c1ccc(C(F)(F)F)cc1 [T5653029]	1.354	0.5642	–	–
COc1ccc(C)cc1NS(=O)(=O)c1cc(-c2ccnn2C)cs1 [L924-0830]	0.9168	0.7153	–	–
COc1ccc(CN2CCN(c3ncnc4c3CCC4)CC2)cc1OC [T636-2007]	0.9841	0.8596	–	–
CC(=O)c1cccc(NC(=O)C(C)Sc2ncnc3ccsc23)c1 (centres unmarked) [T5627721]	0.9487	0.7385	–	–
COc1cccc(CNc2ncnc3c2CCC3)c1 [T636-0134]	0.3283	0	–	–
CCc1ccc(S(=O)(=O)N2CCSC2c2ccc(OC)c(OC)c2)cc1 (centres unmarked) [4052-4304]	0.4335	0.4491	–	–
CCOc1ccc(C2(O)C[N+](c3ccccc3OC)=C3CCCCN32)cc1 (centres unmarked) [K404-0673]	2.024	0.9751	–	–
COc1ccccc1Nc1nc(N2CCOCC2)c2ccccc2n1 [F3007-0009]	0	0	–	–
COc1ccc(C2(O)C[N+](c3ccccc3C)=C3CCCCN32)cc1.[Br-] (centres unmarked) [F0524-0507]	0	0.4491	–	–
COc1ccc(Cl)cc1S(=O)(=O)NCc1ccncc1 [F0376-0203]	0	0	–	–
COc1ccccc1[N+]1=C2CCCCCN2C(O)(c2ccc(F)cc2)C1.[Br-] (centres unmarked) [F0524-0611]	1.547	0.5954	–	–
CCn1nccc1-c1csc(S(=O)(=O)Nc2cc(C)ccc2C)c1 [L924-0988]	0.6139	0.6652	–	–
Cc1oc2ncnc(N3CCCC(C(=O)NCc4ccccc4)C3)c2c1C (centres unmarked) [F228-0365]	0.9001	0.9429	–	–
O=C(c1ccco1)N1CCCn2nc(-c3ccc(C(F)(F)F)cc3)cc2C1 [T200-0370]	0.2896	0.3804	–	–

SMILES	Score_LACTATE [1]	Score_SNARF ([2]; Appendix I)	Score Lact. [1]	other results
Cc1ccc(F)cc1NC(=O)Cc1nn(C)c(=O)c2ccccc12 [T6302989]	0	0.4072	–	–
Cc1cccc(NS(=O)(=O)c2cc(-c3ccnn3C)cs2)c1 [L924-0884]	0.7362	0.7507	–	–
COc1ccc(C2(O)C[N+](c3cc(C)ccc3C)=C3SCCCN32)c(F)c1 (centres unmarked) [K404-0183]	0	0	–	–
Cc1nc2ccc(NS(=O)(=O)c3ccccc3F)cc2s1 [T5511047]	0.3825	0.5545	–	–
CC(Nc1ncnc2sccc12)c1ccccn1 (centres unmarked) [T5672380]	0.5883	0.7508	0.58	–
Cc1cccc([N+]2=C3SCCCN3C(O)(c3ccc(F)cc3)C2)c1 (centres unmarked) [K404-0394]	0.4429	0.3309	–	–
Cc1cccc([N+]2=C3CCCCCN3C(O)(c3cccc([N+](=O)[O-])c3)C2)c1 (centres unmarked) [K404-0915]	–	–	–	Score ([2]; Appendix I, CDC54K primary screening, 10 uM, 90 min, relative to CCCP 2 uM): 0
Clc1ccc2c(c1)CCc1cccnc1C2=C1CCNCC1 [Desloratadine]	–	–	–	Score ([2]; Prestwick library, 10 uM, 90 min, activity relative to positive control CCCP 2 uM): 0.06079; HTS Score (lactate) ([2]; Prestwick library, 10 uM, 90 min, relative to positive control CCCP 2 uM): 0.061
COc1ccc(S(=O)(=O)Nc2ccc(N3CCCCS3(=O)=O)cc2)cc1F [F2794-0128]	–	–	0.62	EC50 [1]: 9.85 µM
O=C(O)C(=O)O.c1ccc(Cc2ccc(OCCn3ccnc3)cc2)cc1 [T5821723]	–	–	0.73	–
CCc1c(C)nc2ncnn2c1NC1CCCCCC1 [Z606-8351]	–	–	0.42	–
COc1cc(C)c(NC(=O)Cc2ccc(C)c(C)c2)cc1OC [T5783794]	–	–	0.44	EC50 ([1]; Mus musculus, Astrocyte): 6.11 µM
Cc1nc2ccccc2n1CCOc1ccc(Br)cc1 [T0505-4087]	–	–	0.64	–
Cn1nc(C(=O)Nc2ccc(Oc3ccccc3Cl)cc2)ccc1=O [T5813085]	–	–	1.01	–
CCc1ccc(S(=O)(=O)Nc2c(C)nn(C)c2C)cc1 [T5753165]	–	–	0.54	–
COc1ccc(NS(=O)(=O)c2ccc(NC(=O)C3CCCO3)cc2)cc1 (centres unmarked) [T5329723]	–	–	0.53	–
CC1=C(C)c2c(N)nc(CCc3nc4ccccc4[nH]3)nc2C1 [T5719257]	–	–	0.74	EC50 ([1]; Mus musculus, Astrocyte): 2.85 µM
CC(C)(C)c1cccc(CNc2ncnc3[nH]ncc23)c1 [F5285-0069]	–	–	0.36	EC50 ([1]; Mus musculus, Astrocyte): 6.29 µM
Cc1nc2ncnn2c(NC2CCCCCC2)c1C [Z606-8287]	–	–	0.57	–
CCCC(=O)NC1=NC(c2ccc3c(c2)CCO3)=CC1 [T5691896]	–	–	0.38	EC50 ([1]; Mus musculus, Astrocyte): 5.21 µM
Cc1cccc(NC(=O)NC2CCN(c3nc4ccccc4n(C)c3=O)CC2)c1 [L932-0267]	–	–	0.53	EC50 ([1]; Mus musculus, Astrocyte): 4.64 µM
